Patent publication US20220395487A1, “RIG-I INNATE IMMUNE RECEPTOR ANTAGONISTS AND METHODS OF USING SAME” (YALE UNIVERSITY, priority 2019, published 2022)

Tests used:
RIG-I [1] = biological target: T1, RIG-I (Homo sapiens, UniProt O95786); assay: NADH-coupled ATPase assay; type: biochemical; design: The native, full-length protein was expressed and purified using methods adapted from published protocols; SUMO (pET-SUMO vector; captured on Ni-NTA) (N, cleaved yes); made in house; host or cells: Rosetta II(DE3) Escherichia coli; details: for IC50: NADH-coupled ATPase assay; for RIG-I ATPase inhibition, result in words: SAR discussion of Table 1 compounds
T1 sequence (O95786 1-925): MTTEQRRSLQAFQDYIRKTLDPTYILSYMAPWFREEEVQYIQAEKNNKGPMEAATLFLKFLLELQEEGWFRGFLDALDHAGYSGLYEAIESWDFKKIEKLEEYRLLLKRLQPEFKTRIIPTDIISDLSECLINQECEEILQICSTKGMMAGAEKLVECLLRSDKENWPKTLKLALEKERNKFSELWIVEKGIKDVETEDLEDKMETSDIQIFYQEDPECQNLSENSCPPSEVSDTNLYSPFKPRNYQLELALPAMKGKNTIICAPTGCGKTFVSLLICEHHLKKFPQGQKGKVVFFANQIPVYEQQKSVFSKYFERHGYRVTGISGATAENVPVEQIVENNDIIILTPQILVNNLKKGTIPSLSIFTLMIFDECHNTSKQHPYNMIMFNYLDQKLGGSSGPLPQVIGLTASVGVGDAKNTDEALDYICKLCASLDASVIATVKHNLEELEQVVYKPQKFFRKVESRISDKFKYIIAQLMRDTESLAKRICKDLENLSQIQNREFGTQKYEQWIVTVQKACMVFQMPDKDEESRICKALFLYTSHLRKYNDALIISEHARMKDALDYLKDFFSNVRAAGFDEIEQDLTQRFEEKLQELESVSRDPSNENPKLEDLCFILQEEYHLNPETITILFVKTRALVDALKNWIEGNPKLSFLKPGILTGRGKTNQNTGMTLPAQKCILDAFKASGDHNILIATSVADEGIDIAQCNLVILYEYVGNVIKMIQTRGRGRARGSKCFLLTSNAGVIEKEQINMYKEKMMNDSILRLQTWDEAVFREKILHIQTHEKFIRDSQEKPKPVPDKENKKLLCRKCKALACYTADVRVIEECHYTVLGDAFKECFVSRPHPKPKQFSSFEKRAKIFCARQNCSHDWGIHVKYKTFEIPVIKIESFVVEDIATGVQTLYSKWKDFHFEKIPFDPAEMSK
Experimental: In this case, RIG-I was activated by a well-defined synthetic RNA hairpin duplex (SLR10-OH), which was added to a final concentration of 250 nM. A coupled assay mixture consisting of 1 mM NADH, 100 U/ml lactic dehydrogenase, 500 U/ml pyruvate kinase, 2.5 mM phosphoenol pyruvic acid was added to the sample. A 12-point serial dilution of the compound of interest was added in a DMSO vehicle such that DMSO concentrations were kept at a constant 2% over the entire drug dilution. The final concentration ranges for drug dilutions varied from compound to compound based on the potency of the small molecule in question. The dilutions covered ranges from 0 to as high as 100 μM (see association figures). Samples were incubated for at least 1 hour at RT. Reactions were initiated by the addition of a 1:1 ATP/MgCl2 mix to a final concentration of 5 mM.
The rate of ATP hydrolysis was determined indirectly by monitoring the conversion of NADH to NAD^+ that results in a loss of sample absorbance at 340 nm. Absorbance was measured over a 20 min time course using a sweeping read at 10 second intervals and a gain setting of 120 on a Biotek Synergy H1 Plate Reader. Mean kobs values were extrapolated for each time course and plotted against drug concentration, then fit to Eq. (1) to determine IC50 values. Each point was a based on two trials of three biological replicates with error bars representing the Standard deviation.

RIG-I [2] = biological target: T1, RIG-I; assay: ADP-Glo ATPase assay; type: biochemical; design: The native, full-length protein was expressed and purified using methods adapted from published protocols; SUMO (pET-SUMO vector; captured on Ni-NTA) (N, cleaved yes); made in house; host or cells: Rosetta II(DE3) Escherichia coli; details: Poly I:C RNA activation, read-out: apparent IC50, RIG-I ATPase inhibition
Experimental: For the ADP-Glo assay system (V9101, Promega), RIG-I protein was diluted to 10 nM in assay buffer (25 mM MOPS pH 7.4, 150 mM NaCl, 2 mM DTT, and 2 mM Mg^2). For HTS experiments, Poly I:C RNA was used for RIG-I activation, and added to a final concentration of 0.4 μg/ml. To initiate the ATPase reactions, ATP was added to a final concentration of 200 μM. To test compounds, a 12-point serial dilution of the small molecule of interest was combined with DMSO, keeping the DMSO levels at a constant 1% throughout the entire drug dilution. Final drug concentrations ranged from 0 to 200 μM. The final volume for reaction was 20 μL per well, measured in a Corning 384-well plate (Plate ID: 3658). Reactions were allowed to proceed at room temperature for one hour, after which 2.5 μL of the ADP-Glo Reagent was added to each well. Samples were incubated at 25° C. for 45 min to terminate the ATPase reaction and deplete the remaining ATP. Next, 5 μL of Kinase Detection Reagent was added to each well in order to convert the ADP product back to ATP, which is then used as a substrate for the luminescent reporter, which was read on a Biotek Synergy HI Plate Reader.
Slopes from the twelve point curves were fit to a non-competitive, four variable inhibition curve in order to obtain IC50 values:
where X is Log10 [compound], Y is luminescence, Top and Bottom are the plateaus at Ymin and Ymax. […]

RIG-I [3] = biological target: T1, RIG-I; assay: IFN-β/Firefly dual-luciferase reporter assay in HEK 293T cells transfected with hRIG-I; type: cell-based; details: HEK293T cells, SLR14 challenge
Experimental: Two different assays were used for evaluating RIG-I inhibition in cells. In the first assay, HEK 293T cells were used to test the influence of compounds on RIG-I signaling activity while simultaneously reporting on relative toxicity. In this case, inhibitor compounds were introduced via growth media replacement rather than by direct addition to cell plates. Specifically, HEK 293T cells (which express RIG-I only under the control of a transfected plasmid) were grown and maintained in T75 flasks containing Dulbecco's Modified Eagle Medium, DMEM (Life Technologies) supplemented with 10% heat-inactivated fetal bovine serum (Hyclone) and non-essential amino acids (Life Technologies). For the IFN-β induction assays, 0.5 ml of cells at 65,000 cells/ml was placed (seeded) in 24-well plates. After 24 h, each well of cells was transfected with 5 ng WT pUNO-hRIG-I (Invivogen), 6 ng pRL-TK constitutive Renilla luciferase reporter plasmid (Promega) and 150 ng of an IFN-β/Firefly luciferase reporter plasmid using the Lipofectamine 2000 transfection reagent (Life Technologies) following the manufacturer's protocol. Protein expression was allowed to proceed for 24 hours. In parallel, a six-point dilution series of each compound of interest was made in a DMSO vehicle and then diluted further into DMEM such that a constant DMSO concentration of 1% is maintained over the entire drug dilution. The DMEM growth media was aspirated from each well of cells and replaced with DMEM that contains the drug. After 30 minutes, the cells were challenged by transfection with 1 μg of the synthetic stem-loop RNA (SLR14) in Lipofectamine 2000. After 5-6 hours, cells were harvested for luminescence analysis in the following manner: Growth media was aspirated from each well, and 100 μl of passive lysis buffer (Promega) was added. Lysis proceeded for 15 min at room temperature. Lysates were clarified by centrifugation, and 20 μl samples of the supernatant were transferred to a 96-well assay plate for analysis using the Dual-Luciferase Reporter Assay System (Promega). Luminescence was measured using a Biotek Synergy H1 plate reader. The resulting Firefly luciferase activity (i.e. the induction of IFN-0) was normalized to the activity of the constitutively expressed Renilla luciferase to account for differences in confluency, transfection efficiency and cell viability across sample wells.

[4] = SLR10-OH activated, mean ± standard deviation, 3 measurements, read-out: IC50

| Structure (SMILES) | IC50 (RIG-I [1]; [4]) [µM] | other results |
| --- | --- | --- |
| CC1(C)C(=O)N=C2C1=C(O)C(=O)c1ccccc12 [RIG001, 4-Hydroxy-3,3-dimethyl-2H1,3H,5H1-benzo[g]indole-2,5-dione] | – | IC50 (RIG-I [1]; read-out: IC50 value in the coupled assay system): 12 ± 1 µM; IC50 (RIG-I [2]): 19 ± 3 µM |
| COC1=C2C(=NC(=O)C2(C)C)c2ccccc2C1=O [RIG002, 4-Methoxy-3,3-dimethyl-2H,3H,5H-benzo[g]indole-2,5-dione] | 6.3 ± 0.6 | – |
| COc1c2c(c3ccccc3c1OC)N(C)C(=O)C2(C)C [RIG003, 4,5-Dimethoxy-1,3,3-trimethyl-1H,2H,3H-benzo[g]indol-2-one] | – | inhibition of RIG-I signaling / IFN induction, result in words (RIG-I [3]): did not influence levels of IFN induction or RIG-I response |
| COc1c2c(c3ccccc3c1OC)NC(=O)C2(C)C [RIG004, 4,5-Dimethoxy-3,3-dimethyl-1H,2H,3H-benzo[g]indol-2-one] | – | RIG-I ATPase inhibition, result in words (RIG-I [1]): loss of function |
| CC1(C)C(=O)N=C2C1=C(OCc1ccccc1)C(=O)c1ccccc12 [RIG005, 4-Benzyloxy-3,3-dimethyl-2H,3H,5H-benzo[g]indole-2,5-dione] | 2.6 ± 0.2 | – |
| CC(C)COC1=C2C(=NC(=O)C2(C)C)c2ccccc2C1=O [RIG006, 4-(2,2-Dimethylethoxy)-3,3-dimethyl-2H,3H,5H-benzo[g]indole-2,5-dione] | 2.1 ± 0.2 | – |
| CCOC1=C2C(=NC(=O)C2(C)C)c2ccccc2C1=O [RIG007, 4-Ethoxy-3,3-dimethyl-2H,3H,5H-benzo[g]indole-2,5-dione] | 1.8 ± 0.1 | – |
| CC1(C)C(=O)N=C2C1=C(OCc1nc3ccccc3[nH]1)C(=O)c1ccccc12 [RIG008, 4-(1H-1,3-Benzodiazol-2-ylmethoxy)-3,3-dimethyl-2H,3H,5H-benzo[g]indole-2,5-dione] | 1.8 ± 0.3 | – |
| O=C1C(O)=C2C(=NC(=O)C23CCCCC3)c2ccccc21 [RIG009, 4-Hydroxy-2,5-dihydrospiro[benzo[g]indole-3,1′-cyclohexane]-2,5-dione] | 2.4 ± 0.3 | – |
| O=C1C(OCc2ccccc2)=C2C(=NC(=O)C23CCCCC3)c2ccccc21 [RIG010, 4-(Benzyloxy)-2,5-dihydrospiro[benzo[g]indole-3,1′-cyclohexane]-2,5-dione] | 4.7 ± 0.3 | – |
| CCC1(CC)C(=O)N=C2C1=C(O)C(=O)c1ccccc12 [RIG011, 3,3-Diethyl-4-hydroxy-2H,3H,5H-benzo[g]indole-2,5-dione] | 0.89 ± 0.04 | RIG-I ATPase inhibition, result in words (RIG-I [1]): nanomolar IC50 values |
| CC1(C)C(=O)N=C2C1=C(OCc1ccc3ccccc3c1)C(=O)c1ccccc12 [RIG013, 3,3-Dimethyl-4-(naphthalen-2-ylmethoxy)-2H,3H,5H-benzo[g]indole-2,5-dione] | 2.1 ± 0.2 | IC50 (RIG-I [3]; compound in growth medium, read-out: IC50, inhibition of RIG-I signaling (IFN induction luciferase)): 1.36 µM |
